Reference: US11298333B1, “Methods of reducing the risk of cardiovascular events in a subject” (Amarin Pharmaceuticals Ireland Limited, priority 2018, dated 2022)

Tested on: statin-treated patients with a history of atherosclerosis or diabetes
Assay: REDUCE-IT Example 3: total (first and subsequent) ischemic events (negative binomial, Andersen-Gill, Wei-Lin-Weissfeld Li-Lagakos, joint frailty; reduced and full dataset)
Format: in vivo, human
Design: Relative risk reduction in total (first and subsequent) ischemic events for the primary composite endpoint / First events reduced by / Second events reduced by / Third events reduced by / Fourth or more events reduced by: concentration or dose not given beside the values
From the text: The following study was a multi-center, placebo-controlled clinical trial the details of which are described above in Example 1, the REDUCE-IT design. […] The main outcomes were total primary composite endpoint events defined as cardiovascular death, nonfatal myocardial infarction, nonfatal stroke, coronary revascularization, or hospitalization for unstable angina and total key secondary composite endpoint events defined as cardiovascular death, nonfatal myocardial infarction, or nonfatal stroke. In the context of this study, total events refer to any first event as well as any subsequent event. Differences in total events were determined using other statistical models, including Andersen-Gill, Wei-Lin-Weisfeld (Li and Lagakos), both pre-specified, and a post hoc and joint-frailty analysis.
For the present prespecified analysis, the primary outcome was the total of first plus subsequent ischemic events consisting of the composite of cardiovascular death, nonfatal myocardial infarction, nonfatal stroke, coronary revascularization, or hospitalization for unstable angina. […] Exploratory analyses of the total of first and subsequent events were also performed for the key secondary composite endpoint.
Baseline characteristics were compared between treatment groups using the chi-squared test for categorical variables and the Wilcoxon rank sum test for continuous variables. There are several methods for analyzing first and subsequent (recurrent) event data. As a pre-specified statistical method, a negative binomial regression was used to calculate rates and rate ratios for total cardiovascular events, which accounts for the variability in each patient's risk of events. As pre-specified supportive analyses, the modified Wei-Lin-Weissfeld method (Li and Lagakos modification) was used to calculate hazard ratios (HRs) for the time to the first event, second event, or third event. An additional pre-specified analysis, the Andersen-Gill model using a Cox proportional-hazard with the counting-process formulation was performed to model the total events. In addition, in order to account for informative censoring due to cardiovascular death, the HR for total non-fatal events was calculated using a joint frailty model (See Rondeau V. Joint frailty models for recurring events and death using maximum penalized likelihood estimation: application on cancer events. Biostatistics. 2007; 8:708-21). The joint frailty model simultaneously estimates hazard functions for non-fatal and fatal CV events and takes into account the fact that patients who are prone to have nonfatal events have an elevated risk of a cardiovascular death. The application of the joint frailty model used a gamma distribution for the frailty term.
Statistical analyses using the full adjudicated endpoint events dataset without exclusions using this bundling approach were also determined.

[1] = Andersen-Gill (I), full dataset, adjusted for stratification factors, vs placebo
[2] = Andersen-Gill (I), full dataset, vs placebo
[3] = Andersen-Gill (I), reduced dataset, adjusted for stratification factors, vs placebo
[4] = Andersen-Gill (I), reduced dataset, vs placebo
[5] = Andersen-Gill (II), full dataset, adjusted for stratification factors, vs placebo
[6] = Andersen-Gill (II), full dataset, vs placebo
[7] = Andersen-Gill (II), reduced dataset, adjusted for stratification factors, vs placebo
[8] = Andersen-Gill (II), reduced dataset, vs placebo
[9] = Wei-Lin-Weissfeld model (Li and Lagakos)
[10] = modified WLW, full dataset, adjusted for stratification factors, vs placebo
[11] = modified WLW, full dataset, vs placebo
[12] = negative binomial, full dataset, adjusted for stratification factors, vs placebo
[13] = negative binomial, full dataset, vs placebo
[14] = negative binomial, reduced dataset, adjusted for stratification factors, vs placebo
[15] = negative binomial, reduced dataset, vs placebo
[16] = number of events, icosapent ethyl arm N = 4089, full dataset
[17] = number of events, after reduction
[18] = number of events, multiple endpoints in a single calendar day handled as a single event
[19] = share of overall events in the category, after reduction

## CC/C=C\C/C=C\C/C=C\C/C=C\C/C=C\CCCC(=O)OCC [Icosapent Ethyl, eicosapentaenoic acid ethyl ester]
[1]
  Adjusted HR, key secondary composite endpoint: 0.71
  Adjusted HR, primary composite endpoint: 0.68
[2]
  Unadjusted HR, key secondary composite endpoint: 0.71
  Unadjusted HR, primary composite endpoint: 0.68
[3]
  Adjusted HR, total key secondary composite endpoint events: 0.72
  Adjusted HR, total primary composite endpoint events: 0.69
[4]
  Unadjusted HR, total key secondary composite endpoint events: 0.72
  Unadjusted HR, total primary composite endpoint events: 0.69
[5]
  Adjusted HR, key secondary composite endpoint: 0.71
  Adjusted HR, primary composite endpoint: 0.68
[6]
  Unadjusted HR, key secondary composite endpoint: 0.71
  Unadjusted HR, primary composite endpoint: 0.68
[7]
  Adjusted HR, total key secondary composite endpoint events: 0.72
  Adjusted HR, total primary composite endpoint events: 0.69
[8]
  Unadjusted HR, total key secondary composite endpoint events: 0.72
  Unadjusted HR, total primary composite endpoint events: 0.69
FIG. 38
  Cardiovascular deaths prevented per 1000 patients treated for five years: 12
  Coronary revascularizations prevented per 1000 patients treated for five years: 76
  Episodes of hospitalization for unstable angina prevented per 1000 patients treated for five years: 16
  Myocardial infarctions prevented per 1000 patients treated for five years: 42
  Strokes prevented per 1000 patients treated for five years: 14
[9]
  First occurrence of primary composite endpoint: HR vs placebo: 0.75
  Second occurrence of primary composite endpoint: HR vs placebo: 0.68
In vivo
  First events reduced by: 25%
  Fourth or more events reduced by: 48%
  Relative risk reduction in total (first and subsequent) ischemic events for the primary composite endpoint: 30%
  Second events reduced by: 32%
  Third events reduced by: 31%
[10]
  Adjusted HR, key secondary composite endpoint, first event: 0.74
  Adjusted HR, key secondary composite endpoint, second event: 0.75
  Adjusted HR, key secondary composite endpoint, third event: 0.79
  Adjusted HR, primary composite endpoint, first event: 0.75
  Adjusted HR, primary composite endpoint, second event: 0.68
  Adjusted HR, primary composite endpoint, third event: 0.70
[11]
  Unadjusted HR, key secondary composite endpoint, first event: 0.74
  Unadjusted HR, key secondary composite endpoint, second event: 0.75
  Unadjusted HR, key secondary composite endpoint, third event: 0.79
  Unadjusted HR, primary composite endpoint, first event: 0.76
  Unadjusted HR, primary composite endpoint, second event: 0.69
  Unadjusted HR, primary composite endpoint, third event: 0.70
Negative binomial model
  Total key secondary endpoint events: rate ratio (RR) vs placebo: 0.72
  Total primary endpoint events: rate ratio (RR) vs placebo: 0.70
[12]
  Adjusted RR, key secondary composite endpoint: 0.71
  Adjusted RR, primary composite endpoint: 0.69
[13]
  Unadjusted RR, key secondary composite endpoint: 0.71
  Unadjusted RR, primary composite endpoint: 0.67
[14]
  Adjusted RR, total key secondary composite endpoint events: 0.72
  Adjusted RR, total primary composite endpoint events: 0.70
[15]
  Unadjusted RR, total key secondary composite endpoint events: 0.71
  Unadjusted RR, total primary composite endpoint events: 0.68
[16]
  Total events before reduction, key secondary endpoint: 590 n
  Total events before reduction, primary endpoint: 1185 n
[17]
  Fatal events, key secondary endpoint: 174 n
  Fatal events, primary endpoint: 174 n
  Non-fatal events, key secondary endpoint: 384 n
  Non-fatal events, primary endpoint: 902 n
[18]
  Total events after reduction, key secondary endpoint: 558 n
  Total events after reduction, primary endpoint: 1076 n
[19]
  Fatal events, key secondary endpoint: 45.0%
  Fatal events, primary endpoint: 45.0%
  Total events after reduction, primary endpoint: 41.0%
Share of overall events in the category, icosapent ethyl arm N = 4089
  Total events before reduction, key secondary endpoint: 42.0%
